Reference: publication PMC4427186, “Forskolin Suppresses Delayed-Rectifier K^+ Currents and Enhances Spike Frequency-Dependent Adaptation of Sympathetic Neurons” (PLoS ONE, 2015)

Target: T1, Kv2.1 α subunit (Rattus norvegicus, UniProt P15387)
T1 construct: gene Kcnb1; homomeric channel
T1 sequence (P15387 1-857): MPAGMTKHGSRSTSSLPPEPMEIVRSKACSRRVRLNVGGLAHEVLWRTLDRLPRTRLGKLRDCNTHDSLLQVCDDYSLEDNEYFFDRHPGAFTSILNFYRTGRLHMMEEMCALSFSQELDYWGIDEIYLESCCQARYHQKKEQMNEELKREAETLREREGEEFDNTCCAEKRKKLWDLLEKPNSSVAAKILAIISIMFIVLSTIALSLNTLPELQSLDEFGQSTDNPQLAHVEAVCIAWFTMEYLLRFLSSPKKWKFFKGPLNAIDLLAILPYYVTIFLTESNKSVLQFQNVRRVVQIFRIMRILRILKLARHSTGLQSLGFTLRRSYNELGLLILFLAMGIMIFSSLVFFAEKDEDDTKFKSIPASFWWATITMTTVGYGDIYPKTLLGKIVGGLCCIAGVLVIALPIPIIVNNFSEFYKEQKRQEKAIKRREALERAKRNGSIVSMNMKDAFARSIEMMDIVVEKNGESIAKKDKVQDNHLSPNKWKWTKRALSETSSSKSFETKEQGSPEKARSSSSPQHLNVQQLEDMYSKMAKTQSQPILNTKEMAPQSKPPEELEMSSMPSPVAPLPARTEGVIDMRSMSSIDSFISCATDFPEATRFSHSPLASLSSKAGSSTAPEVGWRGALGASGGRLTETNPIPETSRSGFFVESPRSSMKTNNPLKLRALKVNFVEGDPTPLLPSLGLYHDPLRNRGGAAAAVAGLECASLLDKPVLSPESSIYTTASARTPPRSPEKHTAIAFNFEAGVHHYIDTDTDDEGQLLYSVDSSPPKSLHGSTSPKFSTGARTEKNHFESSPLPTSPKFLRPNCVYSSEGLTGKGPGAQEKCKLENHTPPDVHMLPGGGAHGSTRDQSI
Assay: whole-cell patch clamp, tail current amplitude
Type: cell-based

IC50: 31.6 µM
SMILES: C=C[C@@]1(C)CC(=O)[C@]2(O)[C@@]3(C)[C@@H](O)CCC(C)(C)[C@@H]3[C@H](O)[C@H](OC(C)=O)[C@@]2(C)O1 [forskolin]
